Read-outs that look alike come from different tables or passages of the source.
Tests used:
[1] = tested on: panel of 24 kinases; test: Kinase selectivity testing (percentage inhibition of 24 kinases at 1 μM); format: biochemical; settings: proquinase; for % inhibiton at 1 uM CK1 Alpha 1: CK1 Alpha 1, 1 uM; for % inhibiton at 1 uM FGFR1: FGFR1, 1 uM; for % inhibiton at 1 uM JAK2: JAK2, 1 uM; for % inhibiton at 1 uM MEK1: MEK1, 1 uM; for % inhibiton at 1 uM RPS5 KA1: RPS5 KA1, 1 uM; for % inhibiton at 1 uM SGK1: SGK1, 1 uM
[2] = Metabolic stability assay; format: in vitro ADME; settings: percentage metabolic stability in human liver microsomes
Procedure: The metabolic stability assay was performed in Wuxi. 1 μM, 15 min. The kinase selectivity testing was performed in ProQinase GmbH, Germany.

[3] = target: T1, FLT3 (Homo sapiens, UniProt P36888); test: FLT3 biochemical assay (ADP Hunter);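 further: FLT3 enzymatic activity quantified through the ADP produced by the kinase reaction, detected with an ADP Hunter readout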
T1 sequence (P36888 27-993): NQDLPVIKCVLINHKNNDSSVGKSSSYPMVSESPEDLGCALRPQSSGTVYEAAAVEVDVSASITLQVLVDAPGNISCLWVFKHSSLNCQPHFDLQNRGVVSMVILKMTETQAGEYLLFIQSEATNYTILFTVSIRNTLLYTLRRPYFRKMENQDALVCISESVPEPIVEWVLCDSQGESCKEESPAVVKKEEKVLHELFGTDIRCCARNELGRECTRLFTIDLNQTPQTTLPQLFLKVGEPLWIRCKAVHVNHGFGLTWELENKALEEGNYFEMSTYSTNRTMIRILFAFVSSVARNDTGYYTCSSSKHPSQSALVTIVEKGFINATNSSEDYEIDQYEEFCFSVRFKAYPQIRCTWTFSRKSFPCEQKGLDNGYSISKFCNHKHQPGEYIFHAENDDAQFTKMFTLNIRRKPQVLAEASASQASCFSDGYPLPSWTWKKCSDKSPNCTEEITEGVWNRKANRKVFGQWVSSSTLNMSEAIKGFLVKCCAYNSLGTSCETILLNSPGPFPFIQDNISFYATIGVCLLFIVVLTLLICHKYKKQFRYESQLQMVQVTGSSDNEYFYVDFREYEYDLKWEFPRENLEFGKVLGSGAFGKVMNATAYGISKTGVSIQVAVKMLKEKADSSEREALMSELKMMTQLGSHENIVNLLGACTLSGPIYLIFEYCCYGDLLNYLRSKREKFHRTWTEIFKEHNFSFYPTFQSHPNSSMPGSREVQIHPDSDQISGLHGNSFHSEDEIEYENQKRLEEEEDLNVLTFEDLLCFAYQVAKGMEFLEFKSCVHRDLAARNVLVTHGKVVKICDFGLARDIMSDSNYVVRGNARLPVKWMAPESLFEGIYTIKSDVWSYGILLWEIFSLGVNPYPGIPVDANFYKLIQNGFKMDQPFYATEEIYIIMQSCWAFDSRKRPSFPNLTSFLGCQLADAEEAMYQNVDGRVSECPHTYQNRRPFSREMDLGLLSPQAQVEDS

[4] = target: T2, PIM-3 (Homo sapiens, UniProt Q86V86); test: PIM-3 biochemical assay (ADP Hunter); settings: read-out: PIM3 IC50;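 further: kinase activity read out as the quantity of ADP generated by the enzyme reaction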
T2 construct: purchased Millipore 14-738

[5] = target: T3, PIM-1 (Homo sapiens, UniProt P11309); test: PIM-1 biochemical assay (ADP Hunter); settings: read-out: PIM1 IC50;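 further: recombinant human PIM-1 carrying a C-terminal His tag, kinase activity quantified via ADP formed as the direct enzymatic product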
T3 construct: histidine tag (C); made in house

[6] = tested on: tumor cell lines; test: Combination assay (MTT in vitro cell proliferation, combination index); format: cell-based
[7] = target: T4, PIM-2 (Homo sapiens, UniProt Q9P1W9); test: PIM-2 biochemical assay (ADP Hunter); settings: semi-quantitative class; read-out: PIM2 IC50;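 further: recombinant N-terminally His-tagged human enzyme, kinase activity quantified by detection of ADP formed as the direct reaction product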
T4 construct: histidine tag (N); made in house

[8] = actual IC50 value in parentheses
[9] = Jeko-1, combined with lapatinib
[10] = SKMel19, combined with GDC-0879

T3 sequence (P11309 whole entry): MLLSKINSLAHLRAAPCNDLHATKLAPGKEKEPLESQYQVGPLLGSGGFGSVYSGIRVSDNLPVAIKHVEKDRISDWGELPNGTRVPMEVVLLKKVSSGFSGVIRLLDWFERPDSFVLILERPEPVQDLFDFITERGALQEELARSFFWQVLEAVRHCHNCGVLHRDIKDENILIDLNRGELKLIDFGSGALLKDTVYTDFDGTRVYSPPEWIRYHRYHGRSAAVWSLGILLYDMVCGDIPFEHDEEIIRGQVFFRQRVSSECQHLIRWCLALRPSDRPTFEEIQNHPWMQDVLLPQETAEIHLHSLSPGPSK
T4 sequence (Q9P1W9 whole entry): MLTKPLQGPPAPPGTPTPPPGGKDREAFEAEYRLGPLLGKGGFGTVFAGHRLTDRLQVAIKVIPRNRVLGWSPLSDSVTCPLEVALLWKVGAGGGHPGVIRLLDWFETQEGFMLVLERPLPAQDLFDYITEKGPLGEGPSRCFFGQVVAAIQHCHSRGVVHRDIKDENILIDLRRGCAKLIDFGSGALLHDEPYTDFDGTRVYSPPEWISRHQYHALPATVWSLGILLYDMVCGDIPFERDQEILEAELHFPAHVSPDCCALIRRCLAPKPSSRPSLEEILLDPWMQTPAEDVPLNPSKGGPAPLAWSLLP

SMILES | % inhibiton at 1 uM B_RAF V600E ([1]; 1 uM) | % inhibiton at 1 uM CK1 Alpha 1 [1] | % inhibiton at 1 uM DYRK 1A ([1]; 1 uM) | % inhibiton at 1 uM EGF_R ([1]; 1 uM) | % inhibiton at 1 uM FAK ([1]; 1 uM) | % inhibiton at 1 uM FGFR1 [1] | % inhibiton at 1 uM IGF1_R ([1]; 1 uM) | % inhibiton at 1 uM IKK BETA ([1]; 1 uM) | % inhibiton at 1 uM INS_R ([1]; 1 uM) | % inhibiton at 1 uM JAK2 [1] | % inhibiton at 1 uM KIT ([1]; 1 uM) | % inhibiton at 1 uM MEK1 [1] | % inhibiton at 1 uM MET ([1]; 1 uM) | % inhibiton at 1 uM PDGFR Alpha ([1]; 1 uM) | Stability in HLM [2] | IC50 ([3]; semi-quantitative class) | IC50 ([4]; semi-quantitative class) | IC50 [5, 8] | IC50 ([5]; semi-quantitative class) | IC50 [7] | also measured
FC(F)(F)Oc1cccc(-n2nnc3ccc(NCC4CCN(Cc5ccncc5)CC4)nc32)c1 [2-25] |  |  |  |  |  |  |  |  |  |  |  |  |  |  |  | > 1 µM | < 0.1 µM | 0.034 µM | < 0.1 µM | > 1 µM | IC50 [4, 8]: 0.022 µM; Combination Index (CI) [6, 9]: 0.387; Synergy [6, 9]: ++ (0.3 < CI < 0.7 (++)); Combination Index (CI) ([6]; MV4:11, combined with GDC-0941): 0.311; Synergy ([6]; MV4:11, combined with GDC-0941): ++ (0.3 < CI < 0.7 (++)); Combination Index (CI) [6, 10]: 0.87; Synergy [6, 10]: + (0.7 < CI < 1.2 (+))
FC(F)(F)Oc1cccc(-n2nnc3ccc(N4CC5(CCNCC5)C4)nc32)c1 [2-49] |  |  |  |  |  |  |  |  |  |  |  |  |  |  |  | > 1 µM | 0.1 to 1 µM |  |  | 0.1 to 1 µM | Synergy ([6]; NCIH23, combined with lapatinib): + (0.7 < CI < 1.2 (+))
CN1CCC(CNc2nc3c(cc2Cl)nnn3-c2cccc(OC(F)(F)F)c2)CC1 [2-55, [6-chloro-3-(3-trifluoromethoxy-phenyl)-3H-[1,2,3]triazolo[4,5-b]pyridin-5-yl]-(1-methyl-piperidin-4-ylmethyl)-amine] |  |  |  |  |  |  |  |  |  |  |  |  |  |  |  | 0.1 to 1 µM | > 1 µM | 0.09 µM | < 0.1 µM | > 1 µM | Combination Index (CI) [6, 9]: 0.15; Synergy [6, 9]: +++ (0.1 < CI < 0.3 (+++)); Combination Index (CI) ([6]; MV4:11, combined with GDC-0941): 0.35; Synergy ([6]; MV4:11, combined with GDC-0941): ++ (0.3 < CI < 0.7 (++))
FC(F)(F)Oc1cccc(-n2nnc3ccc(N4CCCC5(CCCN5)CC4)nc32)c1 (stereo not shown) [2-65] | 3% | 0% | 12% | 12% | 31% | 22% | 21% | 0% | 12% | 8% | 63% | 13% | 11% | 57% | 88.9% | < 0.1 µM | < 0.1 µM | 0.002 µM | < 0.1 µM | 0.1 to 1 µM | IC50 [3, 8]: 0.028 µM; IC50 [4, 8]: 0.006 µM; % inhibiton at 1 uM AKT2 ([1]; AKT2, 1 uM): 0%; % inhibiton at 1 uM CDK8 CYCC ([1]; CDK8 CYCC, 1 uM): 2%; % inhibiton at 1 uM CHK1 ([1]; CHK1, 1 uM): 7%; % inhibiton at 1 uM PAK1 ([1]; PAK1, 1 uM): 0%; % inhibiton at 1 uM PDK1 ([1]; PDK1, 1 uM): 0%; % inhibiton at 1 uM RPS5 KA1 [1]: 10%; % inhibiton at 1 uM SGK1 [1]: 0%; % inhibiton at 1 uM SRC ([1]; SRC, 1 uM): 33%

More lines, main results first:

% inhibiton at 1 uM B_RAF V600E ([1]; 1 uM) | % inhibiton at 1 uM CK1 Alpha 1 [1] | % inhibiton at 1 uM DYRK 1A ([1]; 1 uM) | % inhibiton at 1 uM EGF_R ([1]; 1 uM) | % inhibiton at 1 uM FAK ([1]; 1 uM) | % inhibiton at 1 uM FGFR1 [1] | % inhibiton at 1 uM IGF1_R ([1]; 1 uM) | % inhibiton at 1 uM IKK BETA ([1]; 1 uM) | % inhibiton at 1 uM INS_R ([1]; 1 uM) | % inhibiton at 1 uM JAK2 [1] | % inhibiton at 1 uM KIT ([1]; 1 uM) | % inhibiton at 1 uM MEK1 [1] | % inhibiton at 1 uM MET ([1]; 1 uM) | % inhibiton at 1 uM PDGFR Alpha ([1]; 1 uM) | Stability in HLM [2] | IC50 ([3]; semi-quantitative class) | IC50 ([4]; semi-quantitative class) | IC50 [5, 8] | IC50 ([5]; semi-quantitative class) | IC50 [7] | SMILES | also measured
6% | 2% | 3% | 9% | 6% | 0% | 8% | 4% | 7% | 15% | 2% | 0% | 0% | 0% | 43.6% |  |  |  |  |  | OC1CCC(Nc2ccc3nnn(-c4cccc(OC(F)(F)F)c4)c3n2)CC1 (stereo in doubt) [2-47] | % inhibiton at 1 uM RPS5 KA1 [1]: 0%; % inhibiton at 1 uM SGK1 [1]: 3%
 |  |  |  |  |  |  |  |  |  |  |  |  |  | 97.95% |  |  |  |  |  | FC(F)(F)Oc1cccc(-n2nnc3ccc(NCC4CCNCC4)nc32)c1 [2-21] | 

Source: patent US20130065883A1 (Centro Nacional de Investigaceiones Oncologicas (CNIO), priority 2010, published 2013)
